Results from US5366983A, “Use of quaternary ammonium compounds to remove salmonella contamination from meat products” (The Board of Trustees of The University of Arkansas, priority 1992, dated 1994).
Several values for one entry are separate records, joined by “and”; a condition that tells them apart may be missing. Equal entries are not always repeated. Where two headings read alike, the source gives them in different places.

Columns and labels:
[1] = tested on: Salmonella typhimurium ATCC 14028 attached to human buccal epithelial cells; format: cell-based; conditions: Table A-1
Method: Studies were conducted on the attachment of Salmonella typhimurium to human buccal epithelial cells using the modified procedure of Boussard et al., International J. Pharmaceutics 53: 253-256 (1989). In this study, the activities of cationic and anionic surfactant compounds as well as certain chelating agents were compared on the detachment of S. typhimurium from epithelial cells.
To this end, bacteria were grown on nutrient agar for 16 hours at 37° C. The cells were suspended in 0.008 M phosphate buffered saline (PBS) at pH 7.2 and washed two times at 4500 rpm for 10 minutes. The last suspension was diluted in PBS to obtain a cell concentration of 0.5 to 1×10^9 cells/ml. Human epithelial cells were obtained by swabbing the buccal surface of a healthy, nonsmoking donor. […] The number of living cells was estimated and the suspension diluted to 0.5 to 1×10^5 cells/ml.
Next, the suspension of the human buccal cells was mixed with an equal volume of the bacterial suspension (3.0 ml), or PBS (0.8 ml). Contact was allowed for 1.5 hours at 35° C. under agitation. The mixtures were then centrifuged for 10 minutes at 4500 rpm. Each suspension, 1.0 ml, was transferred into Eppendorf vials and washed with PBS at 1500 rpm for 10 minutes. After the washing, the cells were treated with 1.0 ml PBS or 1.0 ml of the test chemical solution. Treatment was performed by suspending and vortexing on a low speed for 30 seconds followed by centrifugation at 1500 rpm for 10 minutes.
After the treatment, the cells were washed once with PBS and then 20 μl of erythrosin B was added to each vial. The suspension was centrifuged at 1500 rpm for 10 minutes, and the cells were washed twice under the same conditions. The final pellet was suspended in 300 μl of PBS. This suspension was spread out onto microscope slides and dried overnight at room temperature. After counter staining with methylene blue, the slides were microscopically examined under oil immersion.

[2] = tested on: Salmonella typhimurium ATCC 14028 attached to human buccal epithelial cells; experiment: microbe, parasite or virus in culture; format: cell-based; conditions: for adherence, mean value of attached bacteria: Table A-3; for EC50: read-out: EC50 (±SD), detachment
Method: Additional studies on the detachment of Salmonella typhimurium from human buccal epithelial cells were conducted.
S. typhimurium ATCC 14028 was grown in nutrient broth (BBL Microbiology system, Cockeysville, Md.) for 16 hours at 37° C. The cells were centrifuged and washed twice with 0.008 M phosphate buffered saline (PBS, at pH 7.2) at 4500 rpm for 10 minutes. The last suspension was diluted in PBS to obtain a cell concentration 0.5 to 1×10^9 cells/ml using spectrophotometric measurement. Human epithelial cells were obtained by swabbing the buccal surface of a healthy, nonsmoking donor. […] The number of living cells was estimated and the suspension was diluted to 0.5 to 1×10^5 cells/ml.
The suspension of the human buccal cells was mixed with an equal volume of the bacterial suspension (3.0 ml), or PBS (0.8 ml) in 10 ml Erlenmeyer flasks. Contact was allowed for 1.5 hours at 35° C. under agitation. After incubation, 1.0 ml of each suspension was transferred into an Eppendorff vial, centrifuged at 3000 rpm for 10 minutes, and washed with PBS. The cells were treated with 1.0 ml PBS or 1.0 ml of the test chemical solution. Treatment was performed by suspending, gently vortexing, and centrifuging at 1500 rpm for 10 minutes. After the treatment, the cells were washed and placed on microscopic slides for examination.
EC50 represents the inverse measurement of the potency of a compound. EC50 values were determined by a nonlinear regression of the detachment effect versus the cationic surfactant concentration data from Table A-3.

[3] = tested on: Salmonella typhimurium ATCC 14028; experiment: Minimum growth inhibitory concentration, macrodilution; format: cell-based; conditions: Mueler Hinton broth, macrodilution (NCCLS)
Method: Minimum growth inhibitory concentrations (MICs) of quaternary ammonium compounds and Na2 -EDTA for Salmonella were determined using Mueler Hinton broth (BBL Microbiology system, Cockeysville, Md.) and by the macrodilution method established by the National Committee for Clinical Laboratory Standards (NCCLS). Escherichia coli ATCC 25922 and Staphylococcus aureus ATCC 29213 were included in each assay as reference strains.

[4] = tested on: Salmonella typhimurium ATCC 14028; experiment: Effect on viability of Salmonella in suspension (Tables D-1 to D-3); format: cell-based; conditions: for bacterial viability: Table D-1; for EC50: Salmonella enterica, read-out: EC50 (±SD), effect on viability in suspension
Method: EC50 values for four of the compounds were calculated from the bactericidal activity of the compounds as a function of molar concentration by a nonlinear regression algorithm.
In addition to the quaternary ammonium compounds, the antimicrobial activities of chelating agents Na2 -EDTA and EGTA were investigated. Na2 -EDTA was purchased from the Sigma Chemical Company (St. Louis, Mo.). Na2 -EDTA was dissolved in 0.04 M PPB prior to the assay and further dilutions were made in the same buffer.
EGTA was purchased from the Aldrich Chemical Company (Milwaukee, Wis.). EGTA was dissolved in 0.04 M PPB according to the procedure described by Harafuji and Ogawa (J. Biochem. 87:1305-1312 (1980)). After heating EGTA for 15 minutes at 80° C., the pH was adjusted to 7.0 by addition of NaOH. EGTA was filter-sterilized using a 0.2 μm Acro disc filter (Gelman Sciences; Ann Arbor, Mich.) prior to the assay. Further dilutions were made in sterile PPB.

[5] = tested on: Salmonella typhimurium on chicken skin; experiment: Effect of surfactants on Salmonella attached to chicken skin, drumsticks (Tables F1-F4); conditions: 25° C.
Method: The following experiments utilizing chicken legs were conducted to determine the killing potential of a variety of surfactants against Salmonella on the skin and free in solutions. To this end, chicken legs obtained from the Department of Agriculture at the University of Arkansas, Fayetteville, were incubated for thirty minutes at room temperature with a 1:5000 dilution of Salmonella typhimurium. The chicken legs were removed five at a time and then rinsed twice in tap water to remove the unattached and excess Salmonella. The rinse water was sampled, diluted, and then plated onto XLD pour plates. […] The chicken legs were then removed and rinsed twice in tap water to remove the released Salmonella and excess chemicals. Rinses were then sampled, diluted, and then plated onto XLD pour plates.
The chicken legs were then individually washed with 100 ml sterile double distilled water, and then shaken fifty times. Samples of the wash H2 O were diluted and plated onto XLD pour plates. The chicken legs were further swabbed after the washing step above. The swabs were then plated onto the XLD plates. A set of wash samples were enriched with TT Broth Base Hajna and then plated onto XLD plates.
All of the samples were plated in 1 ml aliquots onto XLD pour plates. A positive control sample incubated in sterile double distilled water at 4° C. was run for each of the aforementioned conditions. Treatments occurred at both 4° C. and 25° C. The data is reported as the mean number of CFU/ml. The ratio in the table represents the number of chicken legs out of a sample of ten chicken legs producing the notated number of colonies, as indicated by the +, ++, +++, or ++++.

[6] = Salmonella enterica, Epithelial cell

Row | Structure (SMILES) | adherence, mean value of attached bacteria ([2]; 100 ug/ml) | EC50 [2, 6] [µM] | MIC [3] [µg/mL] | MIC ([3]; Salmonella enterica) [µg/mL] | bacterial viability ([4]; 10 ug/ml) | EC50 [4] [µM] | Enrichment, chicken legs out of ten ([5]; 0.1%) | Rinse H2O ([5]; 0.1%) | Surfactant Solution ([5]; 0.1%) [CFU/ml] | Swabs, chicken legs producing the notated number of colonies ([5]; 0.1%) | Swabs, colonies ([5]; 0.1%) | Wash H2O, colonies ([5]; 0.1%) | Enrichment, chicken legs out of ten ([5]; 1.0%) | Rinse H2O ([5]; 1.0%) [CFU/ml] | Surfactant Solution ([5]; 1.0%) [CFU/ml] | Swabs, chicken legs producing the notated number of colonies ([5]; 1.0%) | Wash H2O, colonies ([5]; 1.0%) [CFU/ml] | Enrichment, chicken legs out of ten ([5]; .01%) | Rinse H2O ([5]; .01%) | Surfactant Solution ([5]; .01%) | other results
1 | CCCCCCCCCCCCCCCC[N+](C)(C)C.[Br-] [HTMAB, hexadecyltrimethylammonium bromide] | 82 ± 35 | 333 ± 14 | 60 | 64 | 1.06 ± 0.08 × 10^9 CFU/ml and 1.67 ± 0.12 × 10^9 CFU/ml | 48 ± 0.03 | 5/10 | + (1-10) | 0 | 6/10 | + (1-10) | 0 CFU/ml | 0/10 | 0 | 0 | 3/10 | 0 | 5/10 | + (1-10) | 0 CFU/ml | adherence, mean value of attached bacteria ([1]; 5 ug/ml): 49 ± 21; adherence, mean value of attached bacteria ([1]; 50 ug/ml): 48 ± 20; cytotoxicity to buccal epithelial cells ([1]; 500 ug/ml): cytotoxic; adherence, mean value of attached bacteria ([2]; 175 ug/ml): 57 ± 33; adherence, mean value of attached bacteria ([2]; 250 ug/ml): 33 ± 19; bacterial viability ([4]; 20 ug/ml): 3.23 ± 0.38 × 10^8 CFU/ml and 6.35 ± 1.03 × 10^8 CFU/ml; Swabs, colonies ([5]; 1.0%): + (1-10); Swabs, chicken legs producing the notated number of colonies ([5]; .01%): 9/10; Swabs, colonies ([5]; .01%): + (1-10); Wash H2O, chicken legs producing the notated number of colonies ([5]; .01%): 10/10; Wash H2O, colonies ([5]; .01%): ++ (11-100)
2 | CCCCCCCCCCCCCC[N+](C)(C)C.[Br-] [TTMAB, tetradecyltrimethylammonium bromide] | 42 ± 22 and 26 ± 14 | 129 ± 3.9 | 60 | 64 | 1.33 ± 0.09 × 10^9 CFU/ml | 105 ± 0.8 | 0/10 | ++ (11-100) | 0 | 5/10 | + (1-10) | 0 CFU/ml | 0/10 | 0 | 0 | 0/10 | 0 | 8/10 | + (1-10) | 0 CFU/ml | adherence, mean value of attached bacteria ([1]; 5 ug/ml): 37 ± 20; adherence, mean value of attached bacteria ([1]; 10 ug/ml): 39 ± 26; adherence, mean value of attached bacteria ([1]; 25 ug/ml): 24 ± 13; adherence, mean value of attached bacteria ([1]; 50 ug/ml): 28 ± 14; adherence, mean value of attached bacteria ([2]; 25 ug/ml): 91 ± 66; adherence, mean value of attached bacteria ([2]; 50 ug/ml): 53 ± 34; adherence, mean value of attached bacteria ([2]; 75 ug/ml): 72 ± 53; adherence, mean value of attached bacteria ([2]; 175 ug/ml): 28 ± 10; minimal effective concentration ([2]; Salmonella enterica, Epithelial cell, read-out: active concentration, detachment): 25 µg/mL; bacterial viability ([4]; 20 ug/ml): 1.06 ± 0.08 × 10^9 CFU/ml; bacterial viability ([4]; 60 ug/ml): 1.52 ± 2.07 × 10^3 CFU/ml; bacterial viability ([4]; 80 ug/ml): 100 ± 173 CFU/ml; bacterial viability ([4]; 100 ug/ml): 0 CFU/ml; Swabs, chicken legs producing the notated number of colonies ([5]; .01%): 10/10; Swabs, colonies ([5]; .01%): + (1-10); Wash H2O, chicken legs producing the notated number of colonies ([5]; .01%): 10/10; Wash H2O, colonies ([5]; .01%): ++ (11-100)
3 | CCCCCCCCCCCC[N+](C)(C)C.[Br-] [DTMAB, dodecyltrimethylammonium bromide] | 92 ± 58 and 74 ± 56 | 868 ± 112 | 150 | 156 | 1.44 ± 0.07 × 10^9 CFU/ml | 730 ± 64 | 8/10 | + (1-10) | 0 | 6/10 | + (1-10) | ++ (11-100) | 0/10 | 0 | 0 | 0/10 | 0 | 10/10 | + (1-10) | + (1-10) | adherence, mean value of attached bacteria ([1]; 10 ug/ml): 76 ± 43; adherence, mean value of attached bacteria ([1]; 25 ug/ml): 41 ± 19; adherence, mean value of attached bacteria ([1]; 75 ug/ml): 30 ± 18; adherence, mean value of attached bacteria ([1]; 100 ug/ml): 23 ± 18; adherence, mean value of attached bacteria ([2]; 50 ug/ml): 113 ± 85; adherence, mean value of attached bacteria ([2]; 75 ug/ml): 102 ± 59; adherence, mean value of attached bacteria ([2]; 150 ug/ml): 80 ± 59; adherence, mean value of attached bacteria ([2]; 200 ug/ml): 60 ± 43; adherence, mean value of attached bacteria ([2]; 250 ug/ml): 63 ± 35; adherence, mean value of attached bacteria ([2]; 300 ug/ml): 54 ± 35; adherence, mean value of attached bacteria ([2]; 325 ug/ml): 68 ± 39; bacterial viability ([4]; 100 ug/ml): 1.3 ± 0.03 × 10^9 CFU/ml; bacterial viability ([4]; 200 ug/ml): 8.75 ± 1.28 × 10^8 CFU/ml; bacterial viability ([4]; 350 ug/ml): 800 ± 1300 CFU/ml; bacterial viability ([4]; 1000 ug/ml): 100 ± 100 CFU/ml; Wash H2O, chicken legs producing the notated number of colonies ([5]; 0.1%): 10/10; Swabs, chicken legs producing the notated number of colonies ([5]; .01%): 10/10; Swabs, colonies ([5]; .01%): + (1-10); Wash H2O, chicken legs producing the notated number of colonies ([5]; .01%): 10/10; Wash H2O, colonies ([5]; .01%): ++ (11-100)
